Results taken from US5861476A, “Peptides and compounds that bind to the IL-1 receptor” (Affymax Technologies N.V., priority 1995, dated 1999).
Where a SMILES comes first, the peptide text is derived from it. Where no end group is shown, it is not given here. [ ]: non-standard residue; d: D form. Aze = O=C(O)[C@@H]1CCN1

target: T1, IL-1RtI (Homo sapiens, UniProt P14778); assay: Inhibition of 125I-IL-1α binding to IL-1RtI (Example 3); settings: not given
T1 construct: made in house; host or cells: recombinant host cells (one form soluble from baculovirus transformed host cells; another PIG-tailed and cleaved from the cell surface)
T1 sequence (P14778 18-336): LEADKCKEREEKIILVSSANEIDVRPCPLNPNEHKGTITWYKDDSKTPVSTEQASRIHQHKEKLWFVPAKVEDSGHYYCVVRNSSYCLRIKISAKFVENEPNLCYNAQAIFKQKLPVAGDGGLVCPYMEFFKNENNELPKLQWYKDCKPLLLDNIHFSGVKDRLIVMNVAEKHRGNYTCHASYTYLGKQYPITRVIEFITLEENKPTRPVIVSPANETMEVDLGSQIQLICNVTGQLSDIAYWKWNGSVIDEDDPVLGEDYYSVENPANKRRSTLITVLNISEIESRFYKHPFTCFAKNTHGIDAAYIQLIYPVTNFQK
Method: This example provides the results of experiments conducted to determine an approximate IC50 for certain peptides of the invention. IC50 as used herein refers to the concentration of a compound which will inhibit 50% of the binding between a receptor and its ligand, e.g. IL-1RtI and IL-1. Stock solutions of each peptide were prepared. The appropriate amount of the peptide was dissolved in DMSO, and then nineteen volumes of binding buffer (RPMI 1640, 1% BSA, 20 mM HEPES, pH 7.2-7.3, and 0.1% sodium azide) were added to yield a 1 mM peptide, 5% DMSO stock solution.
One assay utilized a truncated IL-1RtI which had been immobilized on 96-well plates with an appropriate antibody, typically a non-blocking high affinity antibody. In other assays, cells expressing "full-length" IL-1RtI were used with results that yielded IC50 values about 5 to 10 fold lower than those determined using the truncated receptor. The cells were seeded onto Falcon 3072 96-well plates at about 10^5 cells per well, and the plates were incubated overnight at 37° C. in media containing serum. The following morning, the cells were checked to ensure that the cells were confluent and adhered to the bottom of the wells.
According to either assay protocol, the plates were then washed three times with binding buffer, and then 50 μl of binding buffer and 25 μl of a peptide solution (either the stock solution or a dilution thereof; each stock was subjected to five three fold dilutions) were added to each well. Then 25 μl of binding buffer containing ^125 I-IL-1α (final concentration of 90 pM) were added to each well to begin the assay. Each assay was carried out in duplicate. The plates were then incubated for two hours at 4° C. For peptides having particularly high affinities, the assay was run in 24 well plates allowing for higher levels of ligand (possible total volume of 2.5 ml instead of 100 μl in the 96 well plate), thereby minimizing the potential for ligand depletion.
After the two hour incubation, the wells were rinsed three times with ice cold PBS (a semi-automated cell harvesting device was used to conduct the rinse). The receptors or cells were then detached from the plates by adding 100 μl of 0.1N NaOH to each well and incubating the plates at room temperature for 20 minutes. After the 20 minute incubation, about 75 μl of the suspension was counted on a gamma counter, and the IC50 for each peptide was determined using computer assistance and the results of the gamma counting.

IC50	Compound
< 0.5 µM	C[C@H](NC(=O)[C@H](CC(N)=O)NC(=O)[C@H](CO)NC(=O)[C@H](CCC(=O)O)NC(=O)[C@H](CCC(=O)O)NC(=O)[C@H](Cc1c[nH]c2ccccc12)NC(=O)[C@@H](NC(=O)[C@@H](N)Cc1ccccc1)[C@@H](C)O)C(=O)N[C@@H](Cc1ccc(O)cc1)C(=O)N[C@@H](Cc1ccc(O)cc1)C(=O)N[C@@H](Cc1c[nH]c2ccccc12)C(=O)N[C@@H](CCC(N)=O)C(=O)N1CC[C@H]1C(=O)N[C@@H](Cc1ccc(O)cc1)C(N)=O [FTWEESNAYYWQJY-NH2] (H-FTWEESNAYYWQ[Aze]Y-NH2)
< 0.5 µM	CC(C)C[C@H](NC(=O)[C@@H]1CCCN1C(=O)[C@H](CC(C)C)NC(=O)[C@H](C)NC(=O)[C@H](Cc1ccc(O)cc1)NC(=O)[C@@H]1CCN1C(=O)[C@H](CCC(N)=O)NC(=O)[C@H](Cc1c[nH]c2ccccc12)NC(=O)[C@H](Cc1ccc(O)cc1)NC(=O)[C@H](Cc1ccc(O)cc1)NC(=O)[C@H](C)NC(=O)[C@H](CC(N)=O)NC(=O)[C@H](CO)NC(=O)[C@H](CCC(=O)O)NC(=O)[C@H](CCC(=O)O)NC(=O)[C@H](Cc1c[nH]c2ccccc12)NC(=O)[C@@H](NC(=O)[C@@H](N)Cc1ccccc1)[C@@H](C)O)C(=O)O [FTWEESNAYYWQJYALPL] (H-FTWEESNAYYWQ[Aze]YALPL-OH)
< 0.5 µM	FEWTPGYWQPYALPL [FEWTPGYWQPYALPL]
< 0.5 µM	FTWEESNAYYWQPY-NH2 [FTWEESNAYYWQPY-NH2]

same assay, conditions: inhibition of 125I-IL-1α binding to IL-1RtI; soluble peptide unless marked *

Compound	IC50
EGWWVQPYALPL [EGWWVQ PYALPL]	≤ 100 µM
EIMFWQPYALPL [EIMFWQ PYALPL]	≤ 100 µM
ESFWVQPYALPL [ESFWVQ PYALPL]	> 100 µM
EWTPGYWQPY-NH2 [EWTPGYWQPY--NH2]	≤ 100 µM
EWYQPYALGWAR [EWYQPYALGWAR]	≤ 100 µM
FIEWFQPYALPL [FIEWFQ PYALPL]	≤ 100 µM
FYEWWQPYALPL [FYEWWQ PYALPL]	≤ 100 µM
GVVWYQPYALPL [GVVWYQ PYALPL]	> 100 µM
GWEQPYARGLAG [GWEQPYARGLAG]	≤ 100 µM
GWTQPYSQQGEV [GWTQPYSQQGEV]	≤ 100 µM
GWWQPYARGL [GWWQPYARGL]	≤ 100 µM
GWYQPYALGF [GWYQPYALGF]	≤ 100 µM
GWYQPYVDGWR [GWYQPYVDGWR]	≤ 100 µM

More lines, now with the values ahead:

IC50	Compound
≤ 0.5 µM	CC(C)[C@H](NC(=O)[C@H](Cc1c[nH]c2ccccc12)NC(=O)[C@H](CCC(=O)O)NC(=O)[C@@H](N)Cc1ccccc1)C(=O)N1CCC[C@H]1C(=O)NCC(=O)N[C@@H](Cc1ccc(O)cc1)C(=O)N[C@@H](Cc1ccc(O)cc1)C(=O)N[C@@H](CCC(N)=O)C(=O)N1CC[C@H]1C(=O)N[C@@H](Cc1ccc(O)cc1)C(N)=O [FEWVPGYYQJY--NH2] (H-FEWVPGYYQ[Aze]Y-NH2)
≤ 0.5 µM	C[C@@H](O)[C@H](NC(=O)[C@H](Cc1c[nH]c2ccccc12)NC(=O)[C@H](CCC(=O)O)NC(=O)[C@@H](N)Cc1ccc(O)cc1)C(=O)N1CCC[C@H]1C(=O)NCC(=O)N[C@@H](Cc1ccc(O)cc1)C(=O)N[C@@H](Cc1ccc(O)cc1)C(=O)N[C@@H](CCC(N)=O)C(=O)N1CC[C@H]1C(=O)N[C@@H](Cc1ccc(O)cc1)C(N)=O [YEWTPGYYQJY--NH2] (H-YEWTPGYYQ[Aze]Y-NH2)
≤ 100 µM	AHLFWQPYSVQR [AHLFWQPYSVQR]
≤ 100 µM	AHTWWQPYALPL [AHTWWQ PYALPL]
≤ 100 µM	ARFWLQPYALPL [ARFWLQ PYALPL]
≤ 100 µM	ASEWWQPYALPL [ASEWWQ PYALPL]
≤ 100 µM	AWVQPYATPLDE [AWVQPYATPLDE]
≤ 100 µM	DNSSWYDSFLL [DNSSWYDSFLL]
≤ 100 µM	DNTAWYENFLL [DNTAWYENFLL]
≤ 100 µM	DNTAWYESFLA [DNTAWYESFLA]
≤ 100 µM	DSYWWQPYALPL [DSYWWQ PYALPL]
≤ 100 µM	DWFQPYSIQSDE [DWFQPYSIQSDE]
≤ 100 µM	DYVWEQPYALPL [DYVWEQ PYALPL]
≤ 100 µM	DYVWQQPYALPL [DYVWQQ PYALPL]
≤ 0.5 µM	ENTYSPNWADSMYWQPYALPL [ENTYSPNWADSM YWQPYALPL]
≤ 0.5 µM	FEWTPGYWQPY-NH2 [FEWTPGYWQPY--NH2]
≤ 0.5 µM	FEWTPGYWQPYALPL [FEWTPGYWQPYALPL]
